Key:
TRPV4 = biological target: T1, TRPV4 (Mus musculus, UniProt Q9EPK8); experiment: Calcium influx in Fluo-4 loaded normal and tumor endothelial cells in response to TRPV4 activator; format: cell-based; details: Fluo-4 loaded cells
T1 construct: normal EC that were isolated from the dermis (MDEC cells) of TRAMP mice were used instead; endogenous in cells; host or cells: tumor endothelial cells (TEC) from TRAMP mouse prostate adenocarcinoma; normal EC (MDEC) from TRAMP mouse dermis
Excerpt: Cell Culture. Tumor endothelial cells (EC) cells were isolated from transgenic TRAMP mice bearing prostate adenocarcinoma. Because it is difficult to obtain sufficient quantities of EC cells from the normal mouse prostate (due to its small size), normal EC that were isolated from the dermis (MDEC cells) of TRAMP mice were used instead. Normal EC cells from human dermis (HDEC cells; Cambrex) and an established mouse pancreatic EC cell line (MS1-EC cells; gift of Judah Folkman) served as independent non-tumor EC cell controls. […]
(§1) EC cells adherent to the flexible substrates were loaded with Fluo-4/AM (1 μM) for 30 min, washed 3 times in calcium medium (136 mM NaCl, 4.7 mM KCl, 1.2 mM MgSO4, 1.1 mM CaCl2, 1.2 mM KH2PO4, 5 mM NaHCO3, 5.5 mM glucose, and 20 mM Hepes. pH 7.4) and then exposed to mechanical strain (15% elongation) for 3-4 sec using a Stage Flexer (FLEXCELL® International) apparatus that is fixed on a Nikon upright microscope equipped with CCD camera (Spot-RT slider, Diagnostics Corp, USA). Images were acquired for every 4 seconds and analyzed using IP lab software and Microsoft Excel as described in Matthews, et al. (2006) (J. Cell Sci., 119:508-518).
To confirm whether this difference in TRPV4 expression affects TRPV4 function in these cells, the inventors measured calcium influx in Fluo-4 loaded cells in response to specific TRPV4 activator 4-α-PDD.

human TRPV4 = biological target: T2, human TRPV4 (Homo sapiens, UniProt Q9HBA0); experiment: Calcium influx in TEC transfected with human TRPV4-EGFP construct; format: cell-based
T2 construct: expressed in transfected cells; host or cells: mouse tumor endothelial cells (TEC) from TRAMP mice, Amaxa nucleofection
Method: as §1
Next, the inventors transfected TEC with a human TRPV4-EGFP construct and checked its ability to rescue aberrant mechanosensation of tumor EC. […] TRPV4 activator, 4-α-PDD induced almost 8 fold increase in calcium in these cells compared to EGFP alone-transfected TEC (FIG. 2A). The inventors then cultured these TRPV4-overexpressing cells on transglutamase linked gelatin gels of various stiffness (98 to 2,280 Pa) for 6 h and compared their cell spreading over time with that of EGFP-transfected TEC (control). As expected and shown in FIGS. 2B and 2C, TEC cells transfected with only EGFP attached, spread and increases their degree of spreading with the increasing gel stiffness. […]

T1 sequence (Q9EPK8 whole entry): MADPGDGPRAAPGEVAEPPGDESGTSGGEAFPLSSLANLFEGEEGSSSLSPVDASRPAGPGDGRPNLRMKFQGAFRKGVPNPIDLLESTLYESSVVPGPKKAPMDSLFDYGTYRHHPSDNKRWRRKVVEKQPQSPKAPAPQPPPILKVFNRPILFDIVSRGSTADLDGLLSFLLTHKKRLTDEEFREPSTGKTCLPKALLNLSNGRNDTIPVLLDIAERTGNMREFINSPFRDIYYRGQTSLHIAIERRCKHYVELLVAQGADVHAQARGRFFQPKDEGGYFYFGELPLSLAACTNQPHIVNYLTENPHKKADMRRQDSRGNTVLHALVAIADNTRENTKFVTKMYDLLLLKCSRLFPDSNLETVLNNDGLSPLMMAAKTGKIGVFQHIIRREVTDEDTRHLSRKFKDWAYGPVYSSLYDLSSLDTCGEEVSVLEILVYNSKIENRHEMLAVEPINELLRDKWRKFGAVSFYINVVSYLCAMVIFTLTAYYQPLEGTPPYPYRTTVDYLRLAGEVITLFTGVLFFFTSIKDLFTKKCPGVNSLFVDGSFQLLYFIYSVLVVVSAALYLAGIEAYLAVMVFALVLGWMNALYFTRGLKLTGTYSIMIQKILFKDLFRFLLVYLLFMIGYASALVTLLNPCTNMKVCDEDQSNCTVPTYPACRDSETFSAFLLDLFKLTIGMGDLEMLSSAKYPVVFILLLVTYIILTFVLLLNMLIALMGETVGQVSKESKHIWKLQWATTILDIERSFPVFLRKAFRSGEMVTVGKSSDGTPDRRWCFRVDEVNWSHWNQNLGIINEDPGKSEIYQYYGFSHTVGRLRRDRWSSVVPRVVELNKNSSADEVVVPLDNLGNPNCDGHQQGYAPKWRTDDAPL
T2 sequence (Q9HBA0 whole entry): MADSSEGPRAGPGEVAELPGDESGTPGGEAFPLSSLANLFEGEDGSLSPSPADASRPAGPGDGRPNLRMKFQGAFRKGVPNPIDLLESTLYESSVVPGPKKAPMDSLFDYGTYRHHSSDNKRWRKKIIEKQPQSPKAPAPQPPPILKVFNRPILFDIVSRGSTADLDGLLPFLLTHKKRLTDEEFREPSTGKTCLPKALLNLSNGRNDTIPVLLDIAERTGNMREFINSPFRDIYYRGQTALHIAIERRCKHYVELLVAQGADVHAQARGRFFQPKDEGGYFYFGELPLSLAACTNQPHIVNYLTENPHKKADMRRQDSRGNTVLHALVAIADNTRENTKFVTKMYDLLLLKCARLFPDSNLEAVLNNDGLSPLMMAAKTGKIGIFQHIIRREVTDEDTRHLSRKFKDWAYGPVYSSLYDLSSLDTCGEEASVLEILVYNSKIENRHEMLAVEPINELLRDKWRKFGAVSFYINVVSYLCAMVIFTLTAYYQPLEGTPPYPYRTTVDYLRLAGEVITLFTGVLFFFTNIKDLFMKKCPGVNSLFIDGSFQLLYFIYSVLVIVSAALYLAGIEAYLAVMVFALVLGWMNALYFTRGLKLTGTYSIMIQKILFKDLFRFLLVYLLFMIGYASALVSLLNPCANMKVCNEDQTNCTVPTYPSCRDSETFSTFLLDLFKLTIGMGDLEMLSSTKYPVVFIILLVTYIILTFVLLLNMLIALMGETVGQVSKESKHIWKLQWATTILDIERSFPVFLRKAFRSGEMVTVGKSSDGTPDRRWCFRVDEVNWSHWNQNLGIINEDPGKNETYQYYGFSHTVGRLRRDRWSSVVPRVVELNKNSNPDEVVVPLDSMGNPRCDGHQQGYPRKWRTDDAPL

With `CCCCCCCCCC(=O)O[C@@H]1[C@@H](C)[C@@]2(O)[C@@H](C=C(CO)C[C@@]3(O)C(=O)C(C)=C[C@@H]23)[C@@H]2C(C)(C)[C@]12OC(=O)CCCCCCCCC` [4-α-PDD, 4-α-phorbol 12,13-didecanoate] the “calcium influx induced in nEC” value (TRPV4; normal EC (nEC)) was “rapid robust calcium influx”, the “reduction of induced calcium influx in tumor EC compared with nEC” value (TRPV4; tumor EC vs nEC) was ~40% and the “increase in calcium compared to EGFP alone-transfected TEC” value (human TRPV4) was ~8 fold.

From US9078856B2, “Improving efficacy of cancer therapy” (CHILDREN'S MEDICAL CENTER CORPORATION, priority 2010, dated 2015)
